From ChEMBL document CHEMBL2434896, “Carbonic anhydrase inhibitors. Synthesis of heterocyclic 4-substituted pyridine-3-sulfonamide derivatives and their inhibition of the human cytosolic isozymes I and II and transmembrane tumor-associated isozymes IX and XII” (Eur J Med Chem, 2013)
The source made the active and inactive calls. No cut-off for these calls is given here.

Key:
NCI-H522 = test: Growth inhibition of human NCI-H522 cells at 10 uM after 48 hrs by sulforhodamine B assay; type: functional
HT-29 = test: Growth inhibition of human HT-29 cells at 10 uM after 48 hrs by sulforhodamine B assay; type: functional
SNB-19 = test: Growth inhibition of human SNB19 cells at 10 uM after 48 hrs by sulforhodamine B assay; type: functional
T47D = test: Growth inhibition of human T47D cells at 10 uM after 48 hrs by sulforhodamine B assay; type: functional
KM12 = test: Growth inhibition of human KM12 cells at 10 uM after 48 hrs by sulforhodamine B assay; type: functional; conditions: KM12, 48 h, read-out: GI
SF-539 = test: Growth inhibition of human SF539 cells at 10 uM after 48 hrs by sulforhodamine B assay; type: functional; conditions: SF-539, 48 h, read-out: GI
SW-620 = test: Growth inhibition of human SW620 cells at 10 uM after 48 hrs by sulforhodamine B assay; type: functional
OVCAR-5 = test: Growth inhibition of human OVCAR5 cells at 10 uM after 48 hrs by sulforhodamine B assay; type: functional
IGROV-1 = test: Growth inhibition of human IGROV1 cells at 10 uM after 48 hrs by sulforhodamine B assay; type: functional
UACC-257 = test: Growth inhibition of human UACC257 cells at 10 uM after 48 hrs by sulforhodamine B assay; type: functional
CAKI-1 = test: Growth inhibition of human CAKI-1 cells at 10 uM after 48 hrs by sulforhodamine B assay; type: functional
NCI-H460 = test: Growth inhibition of human NCI-H460 cells at 10 uM after 48 hrs by sulforhodamine B assay; type: functional
SK-OV-3 = test: Growth inhibition of human SKOV3 cells at 10 uM after 48 hrs by sulforhodamine B assay; type: functional
SR = test: Growth inhibition of human SR cells at 10 uM after 48 hrs by sulforhodamine B assay; type: functional; conditions: read-out: GI
NCI-H322M = test: Growth inhibition of human NCI-H322M cells at 10 uM after 48 hrs by sulforhodamine B assay; type: functional
SNB-75 = test: Growth inhibition of human SNB75 cells at 10 uM after 48 hrs by sulforhodamine B assay; type: functional; conditions: SNB-75, 48 h, read-out: GI
A498 = test: Growth inhibition of human A498 cells at 10 uM after 48 hrs by sulforhodamine B assay; type: functional; conditions: A498, 48 h, read-out: GI
HOP-62 = test: Growth inhibition of human HOP62 cells at 10 uM after 48 hrs by sulforhodamine B assay; type: functional
RXF 393 = test: Growth inhibition of human RXF393 cells at 10 uM after 48 hrs by sulforhodamine B assay; type: functional
HCT-15 = test: Growth inhibition of human HCT15 cells at 10 uM after 48 hrs by sulforhodamine B assay; type: functional
SK-MEL-28 = test: Growth inhibition of human SK-MEL-28 cells at 10 uM after 48 hrs by sulforhodamine B assay; type: functional, cell-based
ACHN = test: Growth inhibition of human ACHN cells at 10 uM after 48 hrs by sulforhodamine B assay; type: functional
SF-268 = test: Growth inhibition of human SF268 cells at 10 uM after 48 hrs by sulforhodamine B assay; type: functional; conditions: SF-268, 48 h, read-out: GI
EKVX = test: Growth inhibition of human EKVX cells at 10 uM after 48 hrs by sulforhodamine B assay; type: functional
Hs-578T = test: Growth inhibition of human Hs 578T cells at 10 uM after 48 hrs by sulforhodamine B assay; type: functional
Carbonic anhydrase 9 = Carbonic anhydrase 9 (Homo sapiens, UniProt Q16790); test: Inhibition of human carbonic anhydrase 9 after 15 mins by stopped flow CO2 hydration assay
HCC 2998 = test: Growth inhibition of human HCC2998 cells at 10 uM after 48 hrs by sulforhodamine B assay; type: functional
U-251 = test: Growth inhibition of human U251 cells at 10 uM after 48 hrs by sulforhodamine B assay; type: functional
UACC-62 = test: Growth inhibition of human UACC62 cells at 10 uM after 48 hrs by sulforhodamine B assay; type: functional
K562 = test: Growth inhibition of human K562 cells at 10 uM after 48 hrs by sulforhodamine B assay; type: functional; conditions: K562, 48 h, read-out: GI
SK-MEL-2 = test: Growth inhibition of human SK-MEL-2 cells at 10 uM after 48 hrs by sulforhodamine B assay; type: functional
LOX IMVI = test: Growth inhibition of human LOXIMVI cells at 10 uM after 48 hrs by sulforhodamine B assay; type: functional; conditions: read-out: GI
HCT-116 = test: Growth inhibition of human HCT116 cells at 10 uM after 48 hrs by sulforhodamine B assay; type: functional; conditions: HCT-116, 48 h, read-out: GI
MCF7 = test: Growth inhibition of human MCF7 cells at 10 uM after 48 hrs by sulforhodamine B assay; type: functional
MOLT-4 = test: Growth inhibition of human MOLT4 cells at 10 uM after 48 hrs by sulforhodamine B assay; type: functional; conditions: MOLT-4, 48 h, read-out: GI
TK-10 = test: Growth inhibition of human TK10 cells at 10 uM after 48 hrs by sulforhodamine B assay; type: functional
786-0 = test: Growth inhibition of human 786-0 cells at 10 uM after 48 hrs by sulforhodamine B assay; type: functional; conditions: 786-0, 48 h, read-out: GI
A549 = test: Growth inhibition of human A549/ATCC cells at 10 uM after 48 hrs by sulforhodamine B assay; type: functional
Malme-3M = test: Growth inhibition of human MALME-3M cells at 10 uM after 48 hrs by sulforhodamine B assay; type: functional; conditions: read-out: GI
SF-295 = test: Growth inhibition of human SF295 cells at 10 uM after 48 hrs by sulforhodamine B assay; type: functional
UO-31 = test: Growth inhibition of human UO31 cells at 10 uM after 48 hrs by sulforhodamine B assay; type: functional; conditions: UO-31, 48 h, read-out: GI
SN12C = test: Growth inhibition of human SN12C cells at 10 uM after 48 hrs by sulforhodamine B assay; type: functional
HL-60(TB) = test: Growth inhibition of human HL-60(TB) cells at 10 uM after 48 hrs by sulforhodamine B assay; type: functional; conditions: HL-60, 48 h, read-out: GI
BT-549 = test: Growth inhibition of human BT549 cells at 10 uM after 48 hrs by sulforhodamine B assay; type: functional; conditions: BT-549, 48 h, read-out: GI
COLO 205 = test: Growth inhibition of human COLO205 cells at 10 uM after 48 hrs by sulforhodamine B assay; type: functional
MDA-MB-231 = test: Growth inhibition of human MDA-MB-231 cells at 10 uM after 48 hrs by sulforhodamine B assay; type: functional
OVCAR-4 = test: Growth inhibition of human OVCAR4 cells at 10 uM after 48 hrs by sulforhodamine B assay; type: functional
NCI-H23 = test: Growth inhibition of human NCI-H23 cells at 10 uM after 48 hrs by sulforhodamine B assay; type: functional; conditions: NCI-H23, 48 h, read-out: GI
OVCAR-8 = test: Growth inhibition of human OVCAR8 cells at 10 uM after 48 hrs by sulforhodamine B assay; type: functional
MDA-MB-468 = test: Growth inhibition of human MDA-MB-468 cells at 10 uM after 48 hrs by sulforhodamine B assay; type: functional
OVCAR-3 = test: Growth inhibition of human OVCAR3 cells at 10 uM after 48 hrs by sulforhodamine B assay; type: functional
M14 = test: Growth inhibition of human M14 cells at 10 uM after 48 hrs by sulforhodamine B assay; type: functional; conditions: M14, 48 h, read-out: GI
NCI-H226 = test: Growth inhibition of human NCI-H226 cells at 10 uM after 48 hrs by sulforhodamine B assay; type: functional; conditions: NCI-H226, 48 h, read-out: GI
DU-145 = test: Growth inhibition of human DU145 cells at 10 uM after 48 hrs by sulforhodamine B assay; type: functional
MDA-MB-435 = test: Growth inhibition of human MDA-MB-435 cells at 10 uM after 48 hrs by sulforhodamine B assay; type: functional
NCI/ADR-RES = test: Growth inhibition of human NCI-ADR-RES cells at 10 uM after 48 hrs by sulforhodamine B assay; type: functional
SK-MEL-5 = test: Growth inhibition of human SK-MEL-5 cells at 10 uM after 48 hrs by sulforhodamine B assay; type: functional

`NS(=O)(=O)c1cnccc1N1CCN(Cc2ccccc2)CC1` was tested, and the “growth inhibition (GI)” value (NCI-H522) was “inactive”, the “growth inhibition (GI)” value (HT-29) was “inactive” and the “growth inhibition (GI)” value (SNB-19) was “inactive”. The “growth inhibition (GI)” value (T47D) was “inactive”, the inhibition of growth at 10 µM (KM12) was 1% and the inhibition of growth at 10 µM (SF-539) was 6%. For the same compound, the “growth inhibition (GI)” value (SW-620) was “inactive”, the “growth inhibition (GI)” value (OVCAR-5) was “inactive” and the “growth inhibition (GI)” value (IGROV-1) was “inactive”. For the same compound, the “growth inhibition (GI)” value (UACC-257) was “inactive”, the “growth inhibition (GI)” value (CAKI-1) was “inactive” and the “growth inhibition (GI)” value (NCI-H460) was “inactive”. For the same compound, the “growth inhibition (GI)” value (SK-OV-3) was “inactive”, the inhibition of growth at 10 µM (SR) was 13% and the “growth inhibition (GI)” value (NCI-H322M) was “inactive”. The inhibition of growth at 10 µM (SNB-75) was 7%, the inhibition of growth at 10 µM (A498) was 5% and the “growth inhibition (GI)” value (HOP-62) was “inactive”. For the same compound, the “growth inhibition (GI)” value (RXF 393) was “inactive”, the “growth inhibition (GI)” value (HCT-15) was “inactive” and the “growth inhibition (GI)” value (SK-MEL-28) was “inactive”. The “growth inhibition (GI)” value (ACHN) was “inactive”, the inhibition of growth at 10 µM (SF-268) was 3% and the “growth inhibition (GI)” value (EKVX) was “inactive”. For the same compound, the “growth inhibition (GI)” value (Hs-578T) was “inactive”, the Ki (Carbonic anhydrase 9) was 45.1 nM and the “growth inhibition (GI)” value (HCC 2998) was “inactive”. For the same compound, the “growth inhibition (GI)” value (U-251) was “inactive”, the “growth inhibition (GI)” value (UACC-62) was “inactive” and the inhibition of growth at 10 µM (K562) was 3%. For the same compound, the “growth inhibition (GI)” value (SK-MEL-2) was “inactive”, the inhibition of growth at 10 µM (LOX IMVI) was 4% and the inhibition of growth at 10 µM (HCT-116) was 6%. The “growth inhibition (GI)” value (MCF7) was “inactive”, the inhibition of growth at 10 µM (MOLT-4) was 5% and the “growth inhibition (GI)” value (TK-10) was “inactive”. The inhibition of growth at 10 µM (786-0) was 6%, the “growth inhibition (GI)” value (A549) was “inactive” and the inhibition of growth at 10 µM (Malme-3M) was 1%. The “growth inhibition (GI)” value (SF-295) was “inactive”, the inhibition of growth at 10 µM (UO-31) was 14% and the “growth inhibition (GI)” value (SN12C) was “inactive”. The inhibition of growth at 10 µM (HL-60(TB)) was 8%, the inhibition of growth at 10 µM (BT-549) was 9% and the “growth inhibition (GI)” value (COLO 205) was “inactive”. The “growth inhibition (GI)” value (MDA-MB-231) was “inactive”, the “growth inhibition (GI)” value (OVCAR-4) was “inactive” and the inhibition of growth at 10 µM (NCI-H23) was 1%. The “growth inhibition (GI)” value (OVCAR-8) was “inactive”, the “growth inhibition (GI)” value (MDA-MB-468) was “inactive” and the “growth inhibition (GI)” value (OVCAR-3) was “inactive”. For the same compound, the inhibition of growth at 10 µM (M14) was 2%, the inhibition of growth at 10 µM (NCI-H226) was 1% and the “growth inhibition (GI)” value (DU-145) was “inactive”. For the same compound, the “growth inhibition (GI)” value (MDA-MB-435) was “inactive”, the “growth inhibition (GI)” value (NCI/ADR-RES) was “inactive” and the “growth inhibition (GI)” value (SK-MEL-5) was “inactive”.
